Measurements: publication PMC5405074, “Receptor-Mediated Melanoma Targeting with Radiolabeled α-Melanocyte-Stimulating Hormone: Relevance of the Net Charge of the Ligand” (Frontiers in Endocrinology, 2017)
Where two headings read alike, the source gives them in different places. Non-standard residues stand in square brackets, D forms with d. Residues, ends and D or L forms follow the SMILES beside them. *: point of attachment. DOTA = O=C(O)CN1CCN(CC(=O)O)CCN(CC(=O)*)CCN(CC(=O)O)CC1; Nle = CCCC[C@H](N)C(=O)O

Columns and labels:
MC1R (HBL cells) = biological target: T1, MC1R (HBL cells) (Homo sapiens, UniProt Q01726); test: Competition binding assay with [^125I]-NDP-MSH, human HBL melanoma cells; conditions: HBL cells
T1 construct: endogenous in cells; host or cells: human HBL melanoma cell line
T1 sequence (Q01726 whole entry): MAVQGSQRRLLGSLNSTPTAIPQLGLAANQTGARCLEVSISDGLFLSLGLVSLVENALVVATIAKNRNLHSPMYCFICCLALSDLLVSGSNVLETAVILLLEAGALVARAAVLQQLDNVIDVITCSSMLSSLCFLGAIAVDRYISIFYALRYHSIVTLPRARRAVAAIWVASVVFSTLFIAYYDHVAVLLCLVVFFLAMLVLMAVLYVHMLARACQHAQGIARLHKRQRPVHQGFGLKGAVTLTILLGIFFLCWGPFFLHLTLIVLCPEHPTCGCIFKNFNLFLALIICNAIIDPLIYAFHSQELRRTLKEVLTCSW
Protocol: (§1) Triplicates of 100-µL volumes of B16-F1 or HBL cell suspensions adjusted to 4 × 10^6/mL were incubated in 96-well U-bottom microplates (Falcon 3077). The binding medium consisted of MEM with Earle’s salts, 0.2% BSA, and 0.3 mM 1,10-phenanthroline. This binding medium was called mouse binding medium (MBM). Triplicates of competitor peptide solution (50 µL) yielding final concentrations ranging from 1 × 10^−6 to 1 × 10^−12 M were added. [^125I]NDP-MSH (50,000 cpm) in 50 µL was finally added to each well. The plates were incubated at 15°C for 3 h for B16-F1 cells and at 37°C for 2 h for HBL cells. The incubation was stopped by covering the plates with ice for 10 min. A cell harvester was used to collect cell-bound radioactivity on filters (Packard Unifilter-96 GF/B). The collected radioactivity was counted on a TopCount scintillation counter (Packard) after addition of 50 µL Microscint-20 scintillation cocktail (Perkin Elmer). The IC50 values were calculated with the Prism 6 software (GraphPad Software Inc., San Diego CA, USA).
(§2) The binding affinity of the peptides to MC1R was assessed by competition binding assays using [^125I]-NDP-MSH as radioligand and both murine B16-F1 and human HBL cells.

B16-F1 cells = test: Internalization by cultured B16-F1 cells; assay type: cell-based, mouse; conditions: 37°C, 0.5, 2 and 3.5 h, 74 kBq radioligand
Protocol: B16-F1 cells were seeded in six-well plates and incubated overnight in MEM at 37°C. For the internalization experiments, MEM was replaced by 1 mL MBM (see above) as internalization buffer. After a 1-h incubation at 37°C, 74 kBq of radioligand (^111In-labeled peptides) was added, and the plates were incubated for different time periods. Non-specific internalization was determined by addition of 50 µL of a 1 µM α-MSH solution to the incubation mixture. After the desired incubation times, the cells were extensively washed with MBM kept at 37°C to remove excess radioligand. Incubation in 2 mL ice-cold acid buffer (acetate-buffered Hank’s balanced salt solution, pH 5) for 10 min allowed dissociation of surface-bound ligand. After collection of the acid buffer fraction, the cells were rinsed once with cold MBM, and the washings were pooled with the acid buffer fraction. The cells were washed again with MBM kept at 37°C, lysed in a 1% Triton X-100 solution, and finally transferred to tubes for quantification. The radioactivity of all collected fractions was measured in a γ-counter. A counting plate underwent the same treatment as the plate incubated for the longest time, but its cells were detached with 0.02% EDTA in PBS instead of being lysed with the Triton X-100 solution. Cells from three wells were collected, counted, and thus allowed for normalization of the results obtained. Results were expressed as percent of the added dose per million cells.
Figure 3 Determination of internalization of [^111In] DOTA-NAP-D-Asp-D-Asp (A) and [^111In]DOTA-Phospho-MSH2-9 (B) by cultured B16-F1 cells exposed to the peptides at 37°C for 0.5, 2, and 3.5 h. Surface-bound radioligand was released by an acid buffer wash, and internalized radioligand was determined by lysing cells with detergent. Results are expressed in percent of the added dose per million cells.

[1] = Biodistribution of ^111In-labeled peptides in B16-F1 melanoma-bearing mice; assay type: in vivo, mouse (B6D2F1); conditions: female, iv, total radioactivity, ^111In-labeled peptide, 185 kBq i.v., mean ± SEM of three experiments, n = 5 animals each
Procedure, shortened: (§3)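 B16-F1 cells (about 5 × 10^5) grown s.c. in female B6D2F1 mice; 7 days later 185 kBq ^111In-labeled peptide injected i.v. Tissues collected at 4, 24 and 48 h and γ-counted, uptake given as %ID/g (mean ± SEM); non-specific uptake from co-injection of 50 µg α-MSH. Urine metabolites analysed by RP-HPLC/γ-detection.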

[2] = test system: B16-F1 tumor-bearing mice; test: as above; assay type: in vivo, mouse (B6D2F1); conditions: in vivo
Procedure, shortened: as §3

MC1R (B16-F1 cells) = biological target: T2, MC1R (B16-F1 cells) (Mus musculus, UniProt Q01727); test: Competition binding assay with [^125I]-NDP-MSH, mouse B16-F1 melanoma cells; conditions: B16-F1 cells
T2 construct: endogenous in cells; host or cells: mouse B16-F1 melanoma cells
T2 sequence (Q01727 whole entry): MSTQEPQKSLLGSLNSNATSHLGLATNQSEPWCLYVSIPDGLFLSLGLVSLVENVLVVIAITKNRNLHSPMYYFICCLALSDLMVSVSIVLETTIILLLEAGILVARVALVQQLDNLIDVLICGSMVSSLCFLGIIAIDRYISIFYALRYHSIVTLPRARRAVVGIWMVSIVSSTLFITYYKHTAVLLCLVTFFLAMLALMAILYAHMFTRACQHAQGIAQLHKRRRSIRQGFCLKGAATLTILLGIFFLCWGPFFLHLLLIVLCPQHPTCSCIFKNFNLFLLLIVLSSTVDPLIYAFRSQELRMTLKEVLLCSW
Protocol: as §1, §2

[3] = B6D2F1 (C57BL/6 × DBA/2F1 hybrids), mouse, blood, read-out: Blood uptake
[4] = B6D2F1 (C57BL/6 × DBA/2F1 hybrids), mouse, muscle, read-out: Muscle uptake
[5] = B6D2F1 (C57BL/6 × DBA/2F1 hybrids), mouse, skin, read-out: Skin uptake
[6] = B6D2F1 (C57BL/6 × DBA/2F1 hybrids), mouse, tumor, read-out: Tumor uptake
[7] = B6D2F1, mouse, bone, read-out: Bone uptake
[8] = B6D2F1, mouse, heart, read-out: Heart uptake
[9] = B6D2F1, mouse, kidney, read-out: Kidney uptake
[10] = B6D2F1, mouse, liver, read-out: Liver uptake
[11] = B6D2F1, mouse, lung, read-out: Lung uptake
[12] = B6D2F1, mouse, pancreas, read-out: Pancreas uptake
[13] = B6D2F1, mouse, small intestines, read-out: Small intestines uptake
[14] = B6D2F1, mouse, spleen, read-out: Spleen uptake
[15] = B6D2F1, mouse, stomach, read-out: Stomach uptake

## CCCC[C@H](NC(C)=O)C(=O)N[C@@H](CC(=O)O)C(=O)N[C@@H](Cc1c[nH]cn1)C(=O)N[C@H](Cc1ccccc1)C(=O)N[C@@H](CCCNC(=N)N)C(=O)N[C@@H](Cc1c[nH]c2ccccc12)C(=O)NCC(=O)N[C@@H](CCCCNC(=O)CN1CCN(CC(=O)O)CCN(CC(=O)O)CCN(CC(=O)O)CC1)C(=O)N[C@H](CC(=O)O)C(=O)N[C@H](CC(=O)O)C(=O)O [DOTA-NAP-D-Asp-D-Asp, Ac-Nle-Asp-His-D-Phe-Arg-Trp-Gly-Lys(DOTA)-D-Asp-D-Asp-OH] (Ac-[Nle]DH[dF]RWGK(DOTA)[dD][dD]-OH)
MC1R (HBL cells)
  Reduction of MC1R affinity compared to DOTA-NAP-amide: ~ 10 fold
B16-F1 cells
  Internalization profile (in words): rapid internalization
[1]; [3]
  tissue uptake at 4 h: 0.01 %ID/g
  tissue uptake at 24 h: 0.01 %ID/g
  tissue uptake at 48 h: 0.01 %ID/g
[1]; B6D2F1 (C57BL/6 × DBA/2F1 hybrids), mouse, bone, read-out: Bone uptake
  tissue uptake at 48 h: 0.07 ± 0.01 %ID/g
[1]; [4]
  tissue uptake at 4 h: 0.02 %ID/g
  tissue uptake at 24 h: 0.02 %ID/g
  tissue uptake at 48 h: 0.03 %ID/g
[1]; [5]
  tissue uptake at 4 h: 0.06 ± 0.01 %ID/g
  tissue uptake at 24 h: 0.06 %ID/g
  tissue uptake at 48 h: 0.04 %ID/g
[1]; [6]
  tissue uptake at 24 h: 0.63 ± 0.03 %ID/g
  tissue uptake at 48 h: 0.23 ± 0.02 %ID/g
[1]; [7]
  tissue uptake at 4 h: 0.07 ± 0.01 %ID/g
  tissue uptake at 24 h: 0.06 ± 0.01 %ID/g
[1]; [8]
  tissue uptake at 4 h: 0.03 %ID/g
  tissue uptake at 24 h: 0.03 %ID/g
  tissue uptake at 48 h: 0.03 %ID/g
[1]; [9]
  tissue uptake at 24 h: 4.09 ± 0.16 %ID/g
  tissue uptake at 48 h: 2.02 ± 0.08 %ID/g
[1]; [10]
  tissue uptake at 4 h: 0.1 %ID/g
  tissue uptake at 24 h: 0.09 %ID/g
  tissue uptake at 48 h: 0.07 %ID/g
[1]; [11]
  tissue uptake at 4 h: 0.06 %ID/g
  tissue uptake at 24 h: 0.04 %ID/g
  tissue uptake at 48 h: 0.03 %ID/g
[1]; [12]
  tissue uptake at 4 h: 0.03 %ID/g
  tissue uptake at 24 h: 0.02 %ID/g
  tissue uptake at 48 h: 0.03 %ID/g
[1]; [13]
  tissue uptake at 4 h: 0.05 ± 0.01 %ID/g
  tissue uptake at 24 h: 0.04 ± 0.01 %ID/g
  tissue uptake at 48 h: 0.03 %ID/g
[1]; [14]
  tissue uptake at 4 h: 0.07 %ID/g
  tissue uptake at 24 h: 0.07 %ID/g
  tissue uptake at 48 h: 0.07 %ID/g
[1]; [15]
  tissue uptake at 4 h: 0.11 %ID/g
  tissue uptake at 24 h: 0.03 %ID/g
  tissue uptake at 48 h: 0.02 %ID/g
[2]
  Kidney uptake/retention compared with reference (in words): markedly increased
[2]; melanoma tumors
  Tumor uptake lower than that of reference: ~ 4 fold
MC1R (B16-F1 cells)
  Reduction of MC1R affinity compared to DOTA-NAP-amide: ~ 10 fold
